Among the test systems are RXF 393; TK-10; NCI-H226; DU-145; PC-3; UACC-62; SK-OV-3; SF-539; OVCAR-8; HL-60; HOP-92; Malme-3M; HCT-15; HT-29; SF-268; NCI-H23; SK-MEL-5; OVCAR-5; BT-549.
What all share (experiment): NCI tumour cell line growth inhibition, 48 h

Molecules are shown by their SMILES.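 Five concentrations, 48 hours, 96-well plates. GI50 is the concentration that inhibits growth by half.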 Active and inactive are the calls of the source. No stated cut-off is given here; in the data, active = GI50 up to about 1.1 µM and inactive = higher.

Consider `CN(C)CCCc1c2ccccc2nc2ccc(Cl)cc12`, for which the GI50 was 14.1 µM (inactive) in the assay with RXF 393; 13.9 µM (inactive) in the assay with TK-10; 24.2 µM (inactive) in the assay with NCI-H226; 21.4 µM (inactive) in the assay on DU-145; 16.8 µM (inactive) in the assay on PC-3; 18 µM (inactive) with UACC-62. Moreover, the GI50 in the assay on SK-OV-3 is 20.7 µM (inactive); in the assay with SF-539, 16.6 µM (inactive); with OVCAR-8, 15.9 µM (inactive); with HL-60, 16 µM (inactive); in the assay with HOP-92, 9.53 µM (inactive); in the assay with Malme-3M it was 15.4 µM (inactive). Besides, the GI50 is 30.5 µM in the assay on HCT-15; 13.2 µM (inactive) in the assay on HT-29; 14.6 µM (inactive) in the assay on SF-268; 30.3 µM (inactive) in the assay on NCI-H23; 14.4 µM (inactive) with SK-MEL-5; 15.2 µM (inactive) in the assay on OVCAR-5. For the same compound, in the assay with BT-549, the GI50 is 18.6 µM (inactive).
With `O=[N+]([O-])c1cccc2nc3ccccc3c(NCCCn3ccnc3[N+](=O)[O-])c12`, the GI50 in the assay with RXF 393 is 0.000139 µM (active); in the assay with TK-10, 0.00367 µM (active); in the assay on NCI-H226, 0.000245 µM (active); in the assay on DU-145, < 0.0001 µM (active); with PC-3, 0.000598 µM (active); with UACC-62, 0.000959 µM (active). For the same compound, the GI50 was 0.0229 µM (active) in the assay on SK-OV-3; 0.00137 µM (active) in the assay on SF-539; 0.000111 µM (active) with OVCAR-8; 0.000889 µM (active) in the assay with HL-60; 0.000187 µM (active) with HOP-92; 0.00023 µM (active) in the assay on Malme-3M. The GI50 in the assay with HCT-15 was 0.000131 µM; in the assay on HT-29, < 0.0001 µM (active); in the assay with SF-268 it was 0.000819 µM (active); with NCI-H23, 0.0003 µM (active); with SK-MEL-5 it was < 0.0001 µM (active); with OVCAR-5, 0.00017 µM (active). In addition, the GI50 in the assay on BT-549 is < 0.0001 µM (active).
Consider `O=C(Nc1ccc(-c2cn3ccccc3n2)cc1)c1cc(Br)ccc1O`, for which the GI50 in the assay on RXF 393, in the assay on TK-10, with NCI-H226, in the assay on DU-145, in the assay on PC-3 and with UACC-62 was > 100 µM (inactive) each time. In addition, the GI50 in the assay with SK-OV-3, in the assay with SF-539, with OVCAR-8, in the assay on HL-60, with HOP-92 and in the assay with Malme-3M was > 100 µM (inactive) in each case. Moreover, the GI50 in the assay with HCT-15 is > 100 µM; in the assay on HT-29, > 100 µM (inactive); with SF-268, > 100 µM (inactive); with NCI-H23, > 100 µM (inactive); in the assay on SK-MEL-5, > 100 µM (inactive); in the assay on OVCAR-5, > 100 µM (inactive). Moreover, the GI50 in the assay on BT-549 was > 100 µM (inactive).
In the case of `COC(=O)c1c(C)cccc1CC1Cc2c(C)cccc2C1=O` (centres undefined), the GI50 in the assay with RXF 393 is 27.9 µM (inactive); with TK-10, 35.2 µM (inactive); in the assay with NCI-H226 it was 20.6 µM (inactive); in the assay with DU-145, 60.1 µM (inactive); in the assay with PC-3, 34.4 µM (inactive); with UACC-62 it was 23.8 µM (inactive). Further, the GI50 was 20.2 µM (inactive) in the assay on SK-OV-3; 40.8 µM (inactive) in the assay with SF-539; 48.3 µM (inactive) in the assay on OVCAR-8; 16.9 µM (inactive) with HL-60; 24.4 µM (inactive) in the assay with HOP-92; 21.6 µM (inactive) with Malme-3M. The GI50 was 25.8 µM in the assay on HCT-15; 30.5 µM (inactive) in the assay on HT-29; 31 µM (inactive) in the assay with SF-268; 25.8 µM (inactive) in the assay on NCI-H23; 20.7 µM (inactive) in the assay on SK-MEL-5; 80.2 µM (inactive) in the assay on OVCAR-5. Also, the GI50 in the assay on BT-549 was 35.9 µM (inactive).
Consider `CC(=O)C(=[N+]=[N-])C(=O)NCC#N`, for which the GI50 with RXF 393, in the assay on TK-10, with NCI-H226, with DU-145, in the assay with PC-3 and with UACC-62 was > 10 µM (inactive) in each case. For the same compound, the GI50 with SK-OV-3, in the assay with SF-539, in the assay with OVCAR-8, in the assay on HL-60, with HOP-92 and in the assay on Malme-3M was > 10 µM (inactive) throughout. In addition, the GI50 in the assay on HCT-15 was > 10 µM; in the assay with HT-29, > 10 µM (inactive); with SF-268 it was > 10 µM (inactive); in the assay with NCI-H23, > 10 µM (inactive); with SK-MEL-5, > 10 µM (inactive); in the assay with OVCAR-5, > 10 µM (inactive). Further, the GI50 with BT-549 is > 10 µM (inactive).
`O=c1c2nn3c(=O)n(-c4ccccc4)c(=O)c3nn2c(=O)n1-c1ccccc1`: the GI50 in the assay with RXF 393, in the assay with TK-10, in the assay with NCI-H226, with DU-145, with PC-3 and with UACC-62 was > 100 µM (inactive) each time. Besides, the GI50 in the assay with SK-OV-3, with SF-539, in the assay with OVCAR-8, in the assay with HL-60, in the assay with HOP-92 and in the assay with Malme-3M was > 100 µM (inactive) in each case. Also, the GI50 with HCT-15 is > 100 µM; in the assay with HT-29, > 100 µM (inactive); with SF-268, > 100 µM (inactive); in the assay with NCI-H23, > 100 µM (inactive); in the assay on SK-MEL-5 it was > 100 µM (inactive); in the assay with OVCAR-5, > 100 µM (inactive). For the same compound, the GI50 with BT-549 is > 100 µM (inactive).
On to `C=C1C(=O)O[C@H]2C1C[C@@H](O)/C(C)=C/CC[C@@]1(C)O[C@H]21` (some centres undefined), for which the GI50 in the assay on RXF 393 is 7.62 µM (inactive); in the assay with TK-10, 12 µM (inactive); with NCI-H226 it was > 54.3 µM (inactive); in the assay with DU-145 it was 20.7 µM (inactive); in the assay with PC-3, 23 µM (inactive); with UACC-62, 24.7 µM (inactive). Further, the GI50 in the assay on SK-OV-3 was 49.7 µM (inactive); with SF-539, 19.9 µM (inactive); in the assay with OVCAR-8 it was 15.2 µM (inactive); in the assay on HL-60 it was 2.87 µM (inactive); with HOP-92, 8.89 µM (inactive); with Malme-3M it was 4.08 µM (inactive). Also, the GI50 is 12.1 µM with HCT-15; 22.9 µM (inactive) with HT-29; 39 µM (inactive) in the assay with SF-268; 13.6 µM (inactive) with NCI-H23; 16.1 µM (inactive) in the assay with SK-MEL-5; > 39.4 µM (inactive) in the assay with OVCAR-5. Further, the GI50 in the assay on BT-549 was 8.04 µM (inactive).
On to `Cc1ccc(-n2cc(-c3ccc(Cl)cc3)c3c2N=CN2N=C(c4ccco4)NC32)cc1` (centres undefined), for which the GI50 is 11.2 µM (inactive) in the assay on RXF 393; 7.5 µM (inactive) in the assay on TK-10; 11.2 µM (inactive) with NCI-H226; > 100 µM (inactive) in the assay with DU-145; 12.8 µM (inactive) with PC-3; 13.1 µM (inactive) with UACC-62. Moreover, the GI50 in the assay on SK-OV-3 was 4.13 µM (inactive); with SF-539 it was 15.2 µM (inactive); in the assay on OVCAR-8, 6.28 µM (inactive); with HL-60 it was > 100 µM (inactive); in the assay on HOP-92 it was 2.09 µM (inactive); in the assay on Malme-3M, 31.3 µM (inactive). Moreover, the GI50 in the assay with HCT-15 is > 100 µM; in the assay on HT-29, > 100 µM (inactive); in the assay on SF-268 it was 15.3 µM (inactive); with NCI-H23, 19.7 µM (inactive); in the assay on SK-MEL-5 it was > 100 µM (inactive); in the assay with OVCAR-5, > 100 µM (inactive). In the assay with BT-549, the GI50 is 26.2 µM (inactive).
On to `ClCc1nn(-c2ccccc2)c(CCl)c1CCl`, for which the GI50 in the assay on RXF 393 is 4.82 µM (inactive); in the assay on TK-10 it was 8.39 µM (inactive); with NCI-H226 it was 4.45 µM (inactive); in the assay on DU-145, 4.68 µM (inactive); in the assay on PC-3, 5.71 µM (inactive); in the assay with UACC-62, 3.47 µM (inactive). For the same compound, the GI50 with SK-OV-3 was 8.89 µM (inactive); in the assay on SF-539, 2.34 µM (inactive); in the assay on OVCAR-8 it was 2.35 µM (inactive); with HL-60 it was 1.82 µM (inactive); with HOP-92 it was 3.33 µM (inactive); in the assay on Malme-3M it was 2.99 µM (inactive). The GI50 with HCT-15 is 3.33 µM; with HT-29, 3.43 µM (inactive); with SF-268, 3.27 µM (inactive); in the assay on NCI-H23 it was 4.46 µM (inactive); with SK-MEL-5 it was 2.68 µM (inactive); in the assay with OVCAR-5, 7.16 µM (inactive). In addition, in the assay on BT-549, the GI50 was 3.77 µM (inactive).
On to `CC(C)C(Cl)CC/C(CBr)=C(\Cl)CCl` (centres undefined), for which the GI50 was 2.8 µM (inactive) in the assay on RXF 393; 14.5 µM (inactive) with TK-10; 6.7 µM (inactive) with NCI-H226; 13.4 µM (inactive) in the assay with DU-145; 10.7 µM (inactive) in the assay on PC-3; 2.24 µM (inactive) in the assay on UACC-62. The GI50 was 6.1 µM (inactive) in the assay on SK-OV-3; 15.7 µM (inactive) with SF-539; 2 µM (inactive) in the assay on OVCAR-8; 0.54 µM (active) in the assay with HL-60; 2.25 µM (inactive) in the assay with HOP-92; 6.71 µM (inactive) with Malme-3M. For the same compound, the GI50 with HCT-15 is 2.89 µM; with HT-29 it was 4.75 µM (inactive); in the assay with SF-268, 7.18 µM (inactive); with NCI-H23, 2.67 µM (inactive); with SK-MEL-5 it was 2.02 µM (inactive); in the assay on OVCAR-5, 15.4 µM (inactive). For the same compound, in the assay with BT-549, the GI50 was 2.05 µM (inactive).
For the compound `Cc1ccc2c(O)cc(-c3ccsc3)nc2n1`, the GI50 is 7.53 µM (inactive) with RXF 393; 26.5 µM (inactive) in the assay on TK-10; 4.13 µM (inactive) in the assay with NCI-H226; 9.79 µM (inactive) in the assay with DU-145; 4.81 µM (inactive) in the assay on PC-3; 4.61 µM (inactive) in the assay with UACC-62. The GI50 with SK-OV-3 was 10 µM (inactive); in the assay on SF-539, 5.93 µM (inactive); in the assay on OVCAR-8, 4.06 µM (inactive); in the assay on HL-60, 2.17 µM (inactive); with HOP-92, > 24.6 µM (inactive); in the assay on Malme-3M, 3.66 µM (inactive). The GI50 in the assay with HCT-15 was 1.68 µM; with HT-29 it was 5.62 µM (inactive); with SF-268, 14.4 µM (inactive); in the assay on NCI-H23 it was 2.77 µM (inactive); with SK-MEL-5 it was 2.71 µM (inactive); in the assay on OVCAR-5, 15.8 µM (inactive). In addition, in the assay with BT-549, the GI50 is 4.46 µM (inactive).
